Results from ChEMBL document CHEMBL1201862, “PubChem BioAssay data set” (2004).
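Grown in 96-well plates, cells were treated for 48 hours with each compound at five concentrations. Insufficient inhibition: endpoint recorded as highest concentration tested. The concentration for 50% growth inhibition is given as GI50.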 The source made the active and inactive calls. No stated cut-off is given here; in the data, active = GI50 up to about 1.1 µM and inactive = higher.

What was measured:
Assay in all cases: growth of human tumour cells (NCI), 48 h
786-0 = tested on: 786-0
A549 = tested on: A549
CCRF-CEM = tested on: CCRF-CEM
EKVX = tested on: EKVX
HL-60 = tested on: HL-60
K562 = tested on: K562
NCI-H226 = tested on: NCI-H226
NCI-H522 = tested on: NCI-H522
OVCAR-4 = tested on: OVCAR-4
RPMI-8226 = tested on: RPMI-8226
SK-OV-3 = tested on: SK-OV-3
SN12C = tested on: SN12C
U-251 = tested on: U-251
UACC-257 = tested on: UACC-257
NCI-H460 = tested on: NCI-H460
OVCAR-3 = tested on: OVCAR-3

Measured: GI50

COc1cc(-c2n[nH]cc2CCCC(=O)Nc2ccccc2[N+](=O)[O-])ccc1O
inactive: 786-0 > 100 µM | A549 73.8 µM | CCRF-CEM 55.7 µM | EKVX 64.9 µM | HL-60 35.9 µM | K562 29.6 µM | NCI-H226 > 100 µM | NCI-H522 94 µM | OVCAR-4 > 100 µM | RPMI-8226 40.2 µM | SK-OV-3 > 100 µM | SN12C > 100 µM | U-251 75.2 µM | UACC-257 > 100 µM

N#CCCN(c1ccc(/C=C2\N=C(c3ccc(Cl)cc3)OC2=O)cc1)S(=O)(=O)c1ccccc1
inactive: 786-0 > 100 µM | A549 > 100 µM | EKVX > 100 µM | HL-60 > 100 µM | K562 > 100 µM | NCI-H226 96.2 µM | NCI-H460 > 100 µM | NCI-H522 > 100 µM | OVCAR-3 > 100 µM | OVCAR-4 > 100 µM | RPMI-8226 > 100 µM | SK-OV-3 > 100 µM | SN12C > 100 µM | U-251 > 100 µM | UACC-257 > 100 µM

Cn1c(=O)oc2cc(C3CCC(=O)N3Cc3csc(-c4ccccc4)n3)ccc21 (centres undefined)
inactive: 786-0 > 100 µM | A549 > 100 µM | CCRF-CEM > 100 µM | EKVX > 100 µM | HL-60 79.8 µM | K562 64.6 µM | NCI-H226 > 100 µM | NCI-H460 > 100 µM | NCI-H522 > 100 µM | OVCAR-4 > 100 µM | RPMI-8226 > 100 µM | SK-OV-3 > 100 µM | SN12C > 100 µM | U-251 > 100 µM | UACC-257 > 100 µM

Cc1ccccc1C1CC(c2ccccc2)=NO1 (centres undefined)
inactive: 786-0 > 100 µM | A549 > 100 µM | CCRF-CEM > 100 µM | EKVX > 100 µM | HL-60 > 100 µM | K562 > 100 µM | NCI-H226 > 100 µM | NCI-H460 > 100 µM | NCI-H522 > 100 µM | OVCAR-3 > 100 µM | OVCAR-4 > 100 µM | RPMI-8226 > 100 µM | SK-OV-3 > 100 µM | SN12C > 100 µM | U-251 > 100 µM | UACC-257 > 100 µM

CCc1cccc(C)c1NC(=O)CCc1n[nH]c(=S)o1
inactive: 786-0 > 100 µM | CCRF-CEM > 100 µM | EKVX > 100 µM | HL-60 > 100 µM | K562 66.8 µM | NCI-H226 > 100 µM | NCI-H460 > 100 µM | NCI-H522 > 100 µM | OVCAR-3 > 100 µM | OVCAR-4 > 100 µM | RPMI-8226 21.6 µM | SK-OV-3 > 100 µM | SN12C > 100 µM | U-251 > 100 µM | UACC-257 > 100 µM

O=C1NC2OC(CO)C(O)C(O1)C2O (centres undefined)
inactive: 786-0 > 100 µM | CCRF-CEM > 100 µM | EKVX > 100 µM | HL-60 > 100 µM | K562 > 100 µM | NCI-H226 > 100 µM | NCI-H460 > 100 µM | NCI-H522 > 100 µM | OVCAR-3 > 100 µM | OVCAR-4 > 100 µM | RPMI-8226 > 100 µM | SK-OV-3 > 100 µM | SN12C > 100 µM | U-251 > 100 µM | UACC-257 > 100 µM

CCOC(=O)Cc1csc(Nc2ccccc2[N+](=O)[O-])n1
inactive: 786-0 > 100 µM | A549 > 100 µM | CCRF-CEM > 100 µM | EKVX > 100 µM | HL-60 > 100 µM | K562 > 100 µM | NCI-H226 > 100 µM | NCI-H460 > 100 µM | NCI-H522 > 100 µM | OVCAR-3 > 100 µM | OVCAR-4 > 100 µM | RPMI-8226 > 100 µM | SK-OV-3 > 100 µM | SN12C > 100 µM | U-251 > 100 µM | UACC-257 > 100 µM

CN(CCCN1C(=O)c2cccc3cc([N+](=O)[O-])cc(c23)C1=O)CCN(C)CCCN1C(=O)c2cccc3cc([N+](=O)[O-])cc(c23)C1=O
inactive: 786-0 13.6 µM | A549 19.2 µM | CCRF-CEM 6.34 µM | EKVX > 39.3 µM | HL-60 19.6 µM | K562 4.94 µM | NCI-H226 > 39.3 µM | NCI-H460 6.73 µM | NCI-H522 > 39.3 µM | OVCAR-3 > 39.3 µM | OVCAR-4 27.4 µM | RPMI-8226 2.23 µM | SK-OV-3 > 39.3 µM | SN12C > 39.3 µM | U-251 15.2 µM | UACC-257 > 39.3 µM

O=C(Cc1nc2ccccc2s1)C(=O)Nc1ccc(Cl)cc1
inactive: 786-0 > 100 µM | A549 > 100 µM | EKVX > 100 µM | HL-60 > 100 µM | K562 > 100 µM | NCI-H226 > 100 µM | NCI-H460 > 100 µM | NCI-H522 > 100 µM | OVCAR-3 > 100 µM | OVCAR-4 > 100 µM | RPMI-8226 > 100 µM | SK-OV-3 > 100 µM | SN12C > 100 µM | U-251 > 100 µM | UACC-257 > 100 µM

CC1C=C(OC(=O)c2ccccc2)C(=O)C(n2cc(F)c(=O)[nH]c2=O)O1 (centres undefined)
inactive: 786-0 69.8 µM | A549 38.2 µM | CCRF-CEM 45.1 µM | EKVX > 100 µM | HL-60 64.3 µM | K562 76 µM | NCI-H226 > 100 µM | NCI-H460 19.5 µM | NCI-H522 > 100 µM | OVCAR-3 > 100 µM | OVCAR-4 53.2 µM | RPMI-8226 23.9 µM | SK-OV-3 > 100 µM | SN12C > 100 µM | U-251 97.3 µM | UACC-257 > 100 µM

COc1ccc(NC(=O)CC2S/C(=N\c3ccccc3C)NC2=O)c([N+](=O)[O-])c1 (centres undefined)
inactive: 786-0 > 100 µM | A549 > 100 µM | HL-60 > 100 µM | K562 > 100 µM | NCI-H226 > 100 µM | NCI-H460 > 100 µM | NCI-H522 25.4 µM | OVCAR-3 > 100 µM | OVCAR-4 > 100 µM | RPMI-8226 > 100 µM | SK-OV-3 > 100 µM | SN12C > 100 µM | U-251 > 100 µM | UACC-257 > 100 µM

Cc1ccc2c(c1)SC(c1cc3c(cc1Br)OCO3)S2 (centres undefined)
inactive: 786-0 > 31.6 µM | A549 > 31.6 µM | CCRF-CEM > 31.6 µM | EKVX > 31.6 µM | HL-60 22.6 µM | K562 26.9 µM | NCI-H226 > 31.6 µM | NCI-H460 > 31.6 µM | NCI-H522 24.7 µM | OVCAR-3 > 31.6 µM | OVCAR-4 > 31.6 µM | RPMI-8226 18.5 µM | SK-OV-3 > 31.6 µM | SN12C > 31.6 µM | U-251 > 31.6 µM | UACC-257 > 31.6 µM

COC(=O)C1C(C(=O)OC)C2(OC)c3ccccc3-c3ccccc3C12 (centres undefined)
inactive: 786-0 75.2 µM | A549 36.4 µM | CCRF-CEM 24.7 µM | EKVX 28.7 µM | HL-60 1.97 µM | K562 19.8 µM | NCI-H226 49.5 µM | NCI-H460 34.4 µM | NCI-H522 20.3 µM | OVCAR-3 31 µM | OVCAR-4 48.2 µM | RPMI-8226 9.89 µM | SK-OV-3 80 µM | SN12C 32 µM | U-251 42.9 µM | UACC-257 24.2 µM
